The text below walks through data of ChEMBL document CHEMBL4699540, “Discovery and structure activity relationships of 7-benzyl triazolopyridines as stable, selective, and reversible inhibitors of myeloperoxidase” (Bioorg Med Chem, 2020).

For data set [1], the target named is T1, Methylated-DNA--protein-cysteine methyltransferase (Homo sapiens, UniProt P16455).
T1 sequence (P16455 whole entry): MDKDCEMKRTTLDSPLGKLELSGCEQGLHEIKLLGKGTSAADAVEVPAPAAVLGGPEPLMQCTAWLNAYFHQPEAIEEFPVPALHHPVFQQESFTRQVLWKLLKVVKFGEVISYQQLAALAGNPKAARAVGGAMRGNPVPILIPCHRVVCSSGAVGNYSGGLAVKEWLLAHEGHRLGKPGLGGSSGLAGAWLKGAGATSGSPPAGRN
Description: Inhibition of human MGMT using 06-benzylguanine as substrate incubated for 30 mins by LC/MS analysis. To be noted: 0.5 h.

Data set [2] is described as follows: Stability of compound at pH 1 assessed as half life. The data set is classed as physicochemical. To be noted: buffer.
Data set [3] in a line: Metabolic stability in human liver microsomes assessed as compound remaining. It counts as ADME, Microsome. For orientation: Microsomes from liver hold many membrane-bound enzymes, among them those of drug oxidation.
The target of another data set is T2, Cytochrome P450 1A2 (Homo sapiens, UniProt P05177).
T2 sequence (P05177 whole entry): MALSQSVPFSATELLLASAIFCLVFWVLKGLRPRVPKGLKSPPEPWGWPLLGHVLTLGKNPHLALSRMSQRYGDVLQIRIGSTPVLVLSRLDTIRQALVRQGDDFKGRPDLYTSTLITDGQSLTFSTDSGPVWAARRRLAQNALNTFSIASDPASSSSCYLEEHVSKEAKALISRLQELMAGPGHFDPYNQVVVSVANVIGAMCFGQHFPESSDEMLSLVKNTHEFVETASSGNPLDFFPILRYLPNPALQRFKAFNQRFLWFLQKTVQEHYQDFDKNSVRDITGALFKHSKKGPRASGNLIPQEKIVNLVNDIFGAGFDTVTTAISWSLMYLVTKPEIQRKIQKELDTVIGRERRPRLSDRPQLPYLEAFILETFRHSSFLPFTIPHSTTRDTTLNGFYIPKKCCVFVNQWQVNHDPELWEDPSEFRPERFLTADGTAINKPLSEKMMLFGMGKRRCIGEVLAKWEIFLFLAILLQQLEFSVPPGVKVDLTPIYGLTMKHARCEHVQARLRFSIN
Description: Inhibition of CYP1A2 (unknown origin). The data set is classed as ADME.

The next data set addresses T3, Cytochrome P450 2B6 (Homo sapiens, UniProt P20813).
T3 sequence (P20813 whole entry): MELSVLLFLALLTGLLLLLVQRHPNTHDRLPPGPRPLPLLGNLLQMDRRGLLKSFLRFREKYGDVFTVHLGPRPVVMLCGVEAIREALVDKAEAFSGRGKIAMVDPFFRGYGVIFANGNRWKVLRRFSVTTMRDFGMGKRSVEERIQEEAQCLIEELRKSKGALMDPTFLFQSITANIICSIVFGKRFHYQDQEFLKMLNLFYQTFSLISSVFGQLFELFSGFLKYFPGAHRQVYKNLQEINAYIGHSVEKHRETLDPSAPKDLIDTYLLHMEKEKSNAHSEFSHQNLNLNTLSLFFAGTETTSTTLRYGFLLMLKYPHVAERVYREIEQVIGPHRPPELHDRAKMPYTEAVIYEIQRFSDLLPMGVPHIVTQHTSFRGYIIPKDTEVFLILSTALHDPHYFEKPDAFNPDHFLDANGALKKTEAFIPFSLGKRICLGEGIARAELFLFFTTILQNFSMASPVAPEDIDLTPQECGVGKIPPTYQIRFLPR
Description: Inhibition of CYP2B6 (unknown origin). The data set is classed as ADME.

The target in another data set is T4, Cytochrome P450 2C8 (Homo sapiens, UniProt P10632).
T4 sequence (P10632 whole entry): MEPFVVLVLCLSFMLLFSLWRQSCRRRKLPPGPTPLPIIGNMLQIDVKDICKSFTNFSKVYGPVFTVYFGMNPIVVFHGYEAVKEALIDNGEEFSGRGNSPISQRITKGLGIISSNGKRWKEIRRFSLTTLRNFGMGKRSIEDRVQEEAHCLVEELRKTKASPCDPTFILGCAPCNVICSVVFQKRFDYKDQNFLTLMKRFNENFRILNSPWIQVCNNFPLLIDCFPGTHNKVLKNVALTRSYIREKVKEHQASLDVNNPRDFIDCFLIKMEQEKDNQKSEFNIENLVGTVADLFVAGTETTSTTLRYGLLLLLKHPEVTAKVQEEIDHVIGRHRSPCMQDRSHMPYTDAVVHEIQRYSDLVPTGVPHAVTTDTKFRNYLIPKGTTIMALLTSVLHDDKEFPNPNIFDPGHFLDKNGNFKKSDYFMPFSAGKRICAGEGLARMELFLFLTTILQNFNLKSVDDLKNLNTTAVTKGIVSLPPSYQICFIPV
Description: Inhibition of CYP2C8 (unknown origin). It counts as ADME.

The target in the next data set is Cytochrome P450 3A4 (Homo sapiens, UniProt P08684). In words: Inhibition of CYP3A4 (unknown origin). It counts as ADME.
Data set [4] is described as follows: Half life in CD-1 mouse at 3 mg/kg, po by LC/MS analysis. It counts as ADME, organism-based. To be noted: in vivo.
Data set [5] can be described thus: Protein binding in human plasma assessed as free fraction. The data set is classed as ADME, cell-free.
A further data set addresses T5, Myeloperoxidase (Mus musculus, UniProt P11247).
T5 sequence (P11247 whole entry): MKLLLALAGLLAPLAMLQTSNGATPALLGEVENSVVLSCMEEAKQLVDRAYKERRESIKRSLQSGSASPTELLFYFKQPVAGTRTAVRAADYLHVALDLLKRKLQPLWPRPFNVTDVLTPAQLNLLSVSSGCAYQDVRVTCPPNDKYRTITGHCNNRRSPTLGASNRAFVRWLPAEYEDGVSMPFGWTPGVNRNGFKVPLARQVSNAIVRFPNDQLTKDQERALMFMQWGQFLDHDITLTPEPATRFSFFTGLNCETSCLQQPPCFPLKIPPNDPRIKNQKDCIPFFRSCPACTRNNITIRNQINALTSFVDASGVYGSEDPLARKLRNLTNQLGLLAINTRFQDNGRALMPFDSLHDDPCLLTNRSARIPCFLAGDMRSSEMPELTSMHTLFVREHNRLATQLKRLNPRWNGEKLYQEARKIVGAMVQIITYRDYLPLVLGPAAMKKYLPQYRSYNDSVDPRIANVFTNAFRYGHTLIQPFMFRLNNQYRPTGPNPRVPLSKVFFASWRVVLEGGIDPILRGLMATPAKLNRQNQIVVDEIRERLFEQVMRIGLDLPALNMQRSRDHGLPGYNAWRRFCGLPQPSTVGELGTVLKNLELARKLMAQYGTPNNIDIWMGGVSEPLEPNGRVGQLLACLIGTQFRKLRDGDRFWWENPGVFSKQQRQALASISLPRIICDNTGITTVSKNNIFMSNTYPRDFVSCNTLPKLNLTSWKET
Description: Inhibition of PMA-induced MPO in mouse Neutrophil incubated for 3 mins by luminometry. It counts as tissue-based.

Another data set can be described thus: animal or person. To be noted: Mus musculus, po, 6 h, read-out: INH.

Cytochrome P450 3A4, sequence (P08684 whole entry): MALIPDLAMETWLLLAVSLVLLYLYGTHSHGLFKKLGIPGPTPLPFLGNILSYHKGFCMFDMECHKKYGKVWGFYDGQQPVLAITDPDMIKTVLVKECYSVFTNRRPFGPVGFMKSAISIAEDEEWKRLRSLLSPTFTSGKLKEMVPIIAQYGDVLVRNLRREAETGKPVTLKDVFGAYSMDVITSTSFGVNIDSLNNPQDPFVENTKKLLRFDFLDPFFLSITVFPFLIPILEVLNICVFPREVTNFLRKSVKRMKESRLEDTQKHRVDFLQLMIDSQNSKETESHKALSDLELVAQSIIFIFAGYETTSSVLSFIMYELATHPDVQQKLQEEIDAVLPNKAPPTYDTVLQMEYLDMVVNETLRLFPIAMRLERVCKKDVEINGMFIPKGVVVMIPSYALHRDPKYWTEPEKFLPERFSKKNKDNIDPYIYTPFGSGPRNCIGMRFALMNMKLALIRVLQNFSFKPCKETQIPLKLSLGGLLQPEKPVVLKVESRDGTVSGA

For `Nc1cc(Cc2ccccc2)c2nn[nH]c2n1`, the “inhibition (INH)” value in [1] is “Not Active”. In addition, the half-life (usually the time in which the quantity being followed falls by half) was greater than 100 h in data set [2] and 2 h in data set [4]. The Stabilty in [3] is 98%. Moreover, the IC50 (in general, the concentration needed to halve the response being measured) against Cytochrome P450 1A2 was greater than 10 µM; at Cytochrome P450 2B6, greater than 10 µM; against Cytochrome P450 2C8, greater than 10 µM; against Cytochrome P450 3A4, 6.6 µM; on Myeloperoxidase, 9.5 µM. The fraction unbound (usually the share of the substance not bound to proteins or other matrix) in data set [5] stood at 0.17. Moreover, in “animal or person”, the inhibition in vivo at 30 mg/kg stood at 55%.
